In patent publication US20240058283A1, “THE MODE OF ACTION OF N-MeDCPA ON TRPC CHANNELS” (West Virginia University Board of Governors on Behalf of …, priority 2022, published 2024):

How the values were obtained:
[1] = Metabolite formation in human liver S9; format: in vitro ADME; details: cofactors-fortified human liver S9, 37 degrees centigrade, 1 hour; LC-MS/MS
Method: (§1) Drug Synthesis—ELP-004 (N-MeDCPA) was synthesized as described in U.S. patent Ser. No. 10/682,320. […] Metabolites formed after incubations using either cofactors-fortified mouse or human liver S9 (mouse liver S9; human liver S9) at 37 degrees centigrade for 1 hour. The reaction was quenched by ultracentrifugation. The supernatant was analyzed using LC-MS/MS analysis using Accela LC (Thermo Scientific, Inc., San Jose, CA) coupled to an LTQ LX or to LTQ Orbitrap XL.
(§2) ELP-004 is N-(3,4-dichlorophenyl)-N-methylpropanamide. The core structure of ELP-004 is an aniline compound. Aniline compounds, generally, have a high risk of forming reactive metabolites. ELP-004 was specifically designed to preclude formation of reactive metabolites. Methylation of the amide nitrogen improves metabolic stability.

[2] = Metabolite formation in mouse liver S9; format: in vitro ADME; details: cofactors-fortified mouse liver S9, 37 degrees centigrade, 1 hour; LC-MS/MS
Method: as §1, §2

With `CCC(=O)N(C)c1ccc(Cl)c(Cl)c1` [ELP-004, N-(3,4-dichlorophenyl)-N-methylpropanamide] the “formation of reactive or toxic metabolites” value [1] was “No reactive or toxic compounds were formed” and the “formation of reactive or toxic metabolites” value [2] was “No reactive or toxic compounds were formed”.
